Assay results taken from patent US8895561B2, “Compounds and methods for treating candidiasis and aspergillus infections” (Cellceutix Corporation, priority 2012, dated 2014).
In brackets after ≈: the same amount, converted by molar mass.

system: E. faecalis 29212; test: Bacterial MIC, broth microdilution, CLSI; type: cell-based; conditions: Enterococcus faecalis, 29212; read-out: EF (MIC)
Protocol: (§1) Candida IC50s were determined by OD600 and fluorescence from vegetative cells and by MTS viability assay in the hyphal state. MICs were determined using a broth microdilution assay under standard CLSI conditions Bacteria strains: E. coli 25922 (EC), S. aureus 27660 (SA), E. faecalis 29212 (EF), P. aeruginosa 10145 (PA), and K. pneumoniae 13883 (KP). Cytotoxicity (EC50) was determined against mouse 3T3 fibroblasts, human transformed liver HepG2 cells, and human oral keratinocyte cell line, OKF6/TERT using an MTS viability assay. Candida IC50s<10 μg/mL, MICs<5 μg/mL and cytotoxicity EC50s>100 μM are indicated in green. MICs>5 μg/mL and cytotoxicity EC50s<100 μM are indicated in red. Candida IC50s (CA) were determined by OD600 and fluorescence from vegetative cells. MICs were determined using a broth microdilution assay under standard CLSI conditions Bacteria strains: E. coli 25922 (EC), S. aureus 27660 (SA), E. faecalis 29212 (EF), P. aeruginosa 10145 (PA), and K. pneumoniae 13883 (KP). Cytotoxicity (EC50) was determined against mouse 3T3 fibroblasts and human transformed liver HepG2 cells using an MTS viability assay.

Row | SMILES | MIC [µg/mL]
1 | NCCCn1c2cc(-c3cc(CCN)cc(CCN)c3)ccc2c2ccc(-c3cc(CCN)cc(CCN)c3)cc21 [Compound 161] | > 50
2 | N=C(N)NCCCn1c2cc(-c3cc(CCNC(=N)N)cc(CCNC(=N)N)c3)ccc2c2ccc(-c3cc(CCNC(=N)N)cc(CCNC(=N)N)c3)cc21 [Compound 162] | 12.5 (≈ 16.5 µM)
3 | N=C(N)NCCCOc1cc(OCCCNC(=N)N)cc(-c2ccc3c(c2)c2cc(-c4cc(OCCCNC(=N)N)cc(OCCCNC(=N)N)c4)ccc2n3CCCNC(=N)N)c1 [Compound 163] | 3.13 (≈ 3.56 µM)

system: S. aureus 27660; test: Bacterial MIC, broth microdilution, CLSI; type: cell-based; conditions: Staphylococcus aureus, 27660; read-out: SA (MIC)
Protocol: as §1

Row | SMILES | MIC [µg/mL]
4 | NCCCn1c2cc(Br)ccc2c2ccc(Br)cc21 [Compound 141] | 12.5 (≈ 32.7 µM)
5 | NCCCn1c2cc(-c3cc(CCN)cc(CCN)c3)ccc2c2ccc(-c3cc(CCN)cc(CCN)c3)cc21 [Compound 161] | 6.25 (≈ 11.4 µM)
6 | N=C(N)NCCCn1c2cc(-c3cc(CCNC(=N)N)cc(CCNC(=N)N)c3)ccc2c2ccc(-c3cc(CCNC(=N)N)cc(CCNC(=N)N)c3)cc21 [Compound 162] | 0.39 (≈ 0.514 µM)
7 | N=C(N)NCCCOc1cc(OCCCNC(=N)N)cc(-c2ccc3c(c2)c2cc(-c4cc(OCCCNC(=N)N)cc(OCCCNC(=N)N)c4)ccc2n3CCCNC(=N)N)c1 [Compound 163] | 3.13 (≈ 3.56 µM)

system: P. aeruginosa 10145; test: Bacterial MIC, broth microdilution, CLSI; type: cell-based; conditions: Pseudomonas aeruginosa, 10145; read-out: PA (MIC)
Protocol: as §1

Row | SMILES | MIC [µg/mL]
8 | NCCCn1c2cc(Br)ccc2c2ccc(Br)cc21 [Compound 141] | 100 (≈ 262 µM)
9 | NCCCn1c2cc(-c3cc(CCN)cc(CCN)c3)ccc2c2ccc(-c3cc(CCN)cc(CCN)c3)cc21 [Compound 161] | 50 (≈ 91.1 µM)
10 | N=C(N)NCCCn1c2cc(-c3cc(CCNC(=N)N)cc(CCNC(=N)N)c3)ccc2c2ccc(-c3cc(CCNC(=N)N)cc(CCNC(=N)N)c3)cc21 [Compound 162] | 3.13 (≈ 4.12 µM)
11 | N=C(N)NCCCOc1cc(OCCCNC(=N)N)cc(-c2ccc3c(c2)c2cc(-c4cc(OCCCNC(=N)N)cc(OCCCNC(=N)N)c4)ccc2n3CCCNC(=N)N)c1 [Compound 163] | 50 (≈ 56.9 µM)

system: E. coli 25922; test: Bacterial MIC, broth microdilution, CLSI; type: cell-based; conditions: Escherichia coli, 25922; read-out: EC (MIC)
Protocol: as §1

Row | SMILES | MIC [µg/mL]
12 | NCCCn1c2cc(Br)ccc2c2ccc(Br)cc21 [Compound 141] | 12.5 (≈ 32.7 µM)
13 | NCCCn1c2cc(-c3cc(CCN)cc(CCN)c3)ccc2c2ccc(-c3cc(CCN)cc(CCN)c3)cc21 [Compound 161] | 1.56 (≈ 2.84 µM)
14 | N=C(N)NCCCn1c2cc(-c3cc(CCNC(=N)N)cc(CCNC(=N)N)c3)ccc2c2ccc(-c3cc(CCNC(=N)N)cc(CCNC(=N)N)c3)cc21 [Compound 162] | 1.56 (≈ 2.06 µM)
15 | N=C(N)NCCCOc1cc(OCCCNC(=N)N)cc(-c2ccc3c(c2)c2cc(-c4cc(OCCCNC(=N)N)cc(OCCCNC(=N)N)c4)ccc2n3CCCNC(=N)N)c1 [Compound 163] | 3.13 (≈ 3.56 µM)

system: C. albicans GDH2346; test: Candida IC50, vegetative cells, by OD600 and fluorescence; type: cell-based; conditions: Candida albicans, GDH2346; vegetative cells; read-out: CA (Candida IC50)
Protocol: Candida IC50s were determined by OD600 and fluorescence from vegetative cells and by MTS viability assay in the hyphal state. MICs were determined using a broth microdilution assay under standard CLSI conditions Bacteria strains: E. coli 25922 (EC), S. aureus 27660 (SA), E. faecalis 29212 (EF), P. aeruginosa 10145 (PA), and K. pneumoniae 13883 (KP). Cytotoxicity (EC50) was determined against mouse 3T3 fibroblasts, human transformed liver HepG2 cells, and human oral keratinocyte cell line, OKF6/TERT using an MTS viability assay. Candida IC50s<10 μg/mL, MICs<5 μg/mL and cytotoxicity EC50s>100 μM are indicated in green. MICs>5 μg/mL and cytotoxicity EC50s<100 μM are indicated in red. Candida IC50s (CA) were determined by OD600 and fluorescence from vegetative cells. MICs were determined using a broth microdilution assay under standard CLSI conditions Bacteria strains: E. coli 25922 (EC), S. aureus 27660 (SA), E. faecalis 29212 (EF), P. aeruginosa 10145 (PA), and K. pneumoniae 13883 (KP). Cytotoxicity (EC50) was determined against mouse 3T3 fibroblasts and human transformed liver HepG2 cells using an MTS viability assay. For determination of anti-Candida IC50s, the method was modified by using RPMI/MOPS buffer pH 6.3 and by addition of FDGlu, a substrate for the yeast enzyme exoglucanase which is secreted during cell growth. This provides a fluorescent readout for cell growth which was used in addition to the traditional optical density measure of growth. OD600 and fluorescence were determined at 24 and 48 hours and the average of all 4 reads was used for the final IC50 determination.

Row | SMILES | IC50 [µg/mL]
16 | NCc1cccc(-c2ccc3[nH]c4ccc(-c5cccc(CN)c5)cc4c3c2)c1 [Compound 117] | 3.1 (≈ 8.21 µM)
17 | NCCCn1c2ccccc2c2ccccc21 [Compound 139] | > 100
18 | NCCCn1c2cc(-c3cc(CCN)cc(CCN)c3)ccc2c2ccc(-c3cc(CCN)cc(CCN)c3)cc21 [Compound 161] | 11.8 (≈ 21.5 µM)
19 | N=C(N)NCCCn1c2cc(-c3cc(CCNC(=N)N)cc(CCNC(=N)N)c3)ccc2c2ccc(-c3cc(CCNC(=N)N)cc(CCNC(=N)N)c3)cc21 [Compound 162] | 3.12 (≈ 4.11 µM)
20 | N=C(N)NCCCOc1cc(OCCCNC(=N)N)cc(-c2ccc3c(c2)c2cc(-c4cc(OCCCNC(=N)N)cc(OCCCNC(=N)N)c4)ccc2n3CCCNC(=N)N)c1 [Compound 163] | 1.79 (≈ 2.04 µM)

system: not listed separately; test: Cytotoxicity, MTS viability assay; type: cell-based, human; conditions: human, HepG2 cells (transformed liver); read-out: HepG2 (cytotoxicity EC50)
Protocol: Candida IC50s were determined by OD600 and fluorescence from vegetative cells and by MTS viability assay in the hyphal state. MICs were determined using a broth microdilution assay under standard CLSI conditions Bacteria strains: E. coli 25922 (EC), S. aureus 27660 (SA), E. faecalis 29212 (EF), P. aeruginosa 10145 (PA), and K. pneumoniae 13883 (KP). Cytotoxicity (EC50) was determined against mouse 3T3 fibroblasts, human transformed liver HepG2 cells, and human oral keratinocyte cell line, OKF6/TERT using an MTS viability assay. Candida IC50s<10 μg/mL, MICs<5 μg/mL and cytotoxicity EC50s>100 μM are indicated in green. MICs>5 μg/mL and cytotoxicity EC50s<100 μM are indicated in red.
Candida IC50s (CA) were determined by OD600 and fluorescence from vegetative cells. MICs were determined using a broth microdilution assay under standard CLSI conditions Bacteria strains: E. coli 25922 (EC), S. aureus 27660 (SA), E. faecalis 29212 (EF), P. aeruginosa 10145 (PA), and K. pneumoniae 13883 (KP). Cytotoxicity (EC50) was determined against mouse 3T3 fibroblasts and human transformed liver HepG2 cells using an MTS viability assay.
CLSI conditions Bacteria strains: clinical isolates; yeast strains: C. dubliniensis (NCPF3949), C. glabrata (ATCC 90030), C. krusei (ATCC 6258), C. parapsilosis (ATCC 22019), and C. tropicalis (ATCC 750). Cytotoxicity (EC50) was determined against mouse 3T3 fibroblasts, human transformed liver HepG2 cells, and human oral keratinocyte cell line, OKF6/TERT using an MTS viability assay.

Row | SMILES | EC50 [µM]
21 | NCCCn1c2cc(Br)ccc2c2ccc(Br)cc21 [Compound 141] | 62
22 | NCCCn1c2cc(-c3cc(CCN)cc(CCN)c3)ccc2c2ccc(-c3cc(CCN)cc(CCN)c3)cc21 [Compound 161] | 466
23 | N=C(N)NCCCn1c2cc(-c3cc(CCNC(=N)N)cc(CCNC(=N)N)c3)ccc2c2ccc(-c3cc(CCNC(=N)N)cc(CCNC(=N)N)c3)cc21 [Compound 162] | 273
24 | N=C(N)NCCCOc1cc(OCCCNC(=N)N)cc(-c2ccc3c(c2)c2cc(-c4cc(OCCCNC(=N)N)cc(OCCCNC(=N)N)c4)ccc2n3CCCNC(=N)N)c1 [Compound 163] | 113

same assay, conditions: mouse, 3T3 fibroblasts; read-out: 3T3 (cytotoxicity EC50)

Row | SMILES | EC50 [µM]
25 | NCCCn1c2cc(Br)ccc2c2ccc(Br)cc21 [Compound 141] | 107
26 | NCCCn1c2cc(-c3cc(CCN)cc(CCN)c3)ccc2c2ccc(-c3cc(CCN)cc(CCN)c3)cc21 [Compound 161] | 356
27 | N=C(N)NCCCn1c2cc(-c3cc(CCNC(=N)N)cc(CCNC(=N)N)c3)ccc2c2ccc(-c3cc(CCNC(=N)N)cc(CCNC(=N)N)c3)cc21 [Compound 162] | 49
28 | N=C(N)NCCCOc1cc(OCCCNC(=N)N)cc(-c2ccc3c(c2)c2cc(-c4cc(OCCCNC(=N)N)cc(OCCCNC(=N)N)c4)ccc2n3CCCNC(=N)N)c1 [Compound 163] | 31
